In patent publication US11633458B2, “Compositions and methods for treating melanoma” (University of Virginia Patent Foundation, priority 2013, dated 2023):

What was measured:
[1] = test system: breast cancer cell lines; test: CXCL10 production by breast cancer cell lines, flow cytometry; format: cell-based, human; settings: n=4; printed 'LPS, PAM3CSK4, and MALP-2+IFNγ', +IFNγ may apply to all three
Experimental: Breast cancer cells were stimulated with TLR agonists overnight alone or in combination with IFNγ (IFNγ stimulation indicated as +). CXCL10 production was assessed by flow cytometry from the indicated breast cancer cell lines (n=4).

[2] = test system: lung cancer cell lines; test: CXCL10 production by lung cancer cell lines, flow cytometry; format: cell-based, human; settings: lung cancer cell lines n=8 (FIG. 16)
Experimental: FIG. 16 (line graph): Treatment of Lung Cancer cells with TLR1/2 agonists-TLR1/2 agonists can induce some CXCL10 production from lung cancer cell lines. Lung cancer cells were stimulated with TLR agonists overnight alone or in combination with IFNγ (IFNγ stimulation indicated as +). CXCL10 production was assessed by flow cytometry from the indicated lung cancer cell lines (n=8).

[3] = test system: DM13 cells; test: TLR agonist dose response assay, CXCL10 producing cells by flow cytometry, constant IFNγ; format: cell-based, human; settings: for effect on CXCL10 induction: in the presence of IFNγ, even at much higher concentrations than in prior experiments; for optimal concentration for CXCL10 production: constant concentration of IFNγ
Experimental: FIGS. 3A-3D. […] Melanoma cells were analyzed for induced chemokine production after overnight stimulation with the indicated TLR agonists with (+) or without (−) IFNγ. FIG. 3A-FIG. 3B (12 panels/images each). […] Scale bars represent 100 μm. FIG. 3C. Graphic illustration of ELISA assays to detect CXCL10 from supernatants of stimulated melanoma cells DM13 (left) and VMM1 (right). FIG. 3D. TLR agonist dose response assay. […] Data are from 2 independent experiments.
(§1) These were used with or without rh-IFNγ (1000 IU/mL; PeproTech). After stimulation, cells were detached using Accutase.
(§2) Cells were fixed and permeablilized using the BD Cytofix/Cytoperm kit and then stained with the indicated antibodies. Staining antibodies: CCL2-PE, CCL3-PE, CCL4-PE, CCL5-PE, CXCL10-PE (BD Pharmingen), CXCL9-PE, CXCL12-APC (R&D Systems), IgG1-PE, and IgG2α-PE (Caltag). Flow cytometric analyses were conducted as described.

[4] = test system: melanoma cell lines VMM1, DM13, DM93 and DM122; test: Intracellular staining of chemokines CCL2-5, CXCL9, CXCL12 by flow cytometry after overnight TLR agonist stimulation with or without IFNγ; format: cell-based, human; settings: TLR agonist alone
Experimental: (§3) Stained cells were collected on the FACSCalibur instrument (BD Biosciences) and analyzed with FlowJo 8.8.6 software (TreeStar, Ashland, Oreg.). Analyses were conducted on live cells (95%) as defined by forward and side-angle scatter. Gates were set based on isotype-matched (ISO) controls or fluorescence-minus-one (FMO) controls.
as §1, §2

[5] = test system: 21 melanoma cell lines; test: TLR2 and TLR6 staining by flow cytometry with or without IFNγ; format: cell-based, human; settings: IFNγ stimulation, data not shown
Experimental: Melanoma cell lines were seeded into 6-well plates at 1×10^6 cells/well in RPMI and stimulated overnight in the presence or absence of recombinant human IFNγ (rh-IFNγ, 1000 IU/mL; PeproTech, Rocky Hill, N.J.). After stimulation, cells were detached using Accutase (Millipore, Billerica, Mass.), stained with indicated antibodies and fixed using Cytofix (BD Biosciences, San Jose, Calif.). Surface staining antibodies: TLR2-Alexa647, Streptavidin-PE (BD Pharmigen, San Jose, Calif.), TLR6-Biotin (eBioscience, San Diego, Calif.), TLR4-APC (R&D Systems, Minneapolis, Minn.). Intracellular staining: cells were fixed and permeabilized using the BD Cytofix/Cytoperm kit (BD Biosciences) and stained with appropriate antibodies: TLR7-CFS, IgG2α-CFS (R&D Systems), TLR3-PE, TLR9-APC (eBioscience), TLR8-Alexa488 (Dendritics, San Diego, Calif.), IgG1-PE, and IgG2α-PE (Caltag, Towcester, UK).
as §3

[6] = test system: melanoma cell lines VMM1, DM13, DM93 and DM122; test: Intracellular CXCL10 staining by flow cytometry after overnight stimulation with TLR agonists with or without IFNγ; format: cell-based, human; settings: averaged across the four melanoma lines, flow cytometry (FIG. 2B)
Experimental: as §3, §1, §2

[7] = test system: melanoma cell lines VMM1, DM13, DM93 & VMM39; test: Gene expression profiling (gene array) of melanoma cell lines after IFNγ or TLR2/6 agonist + IFNγ; format: cell-based, human; settings: Vs No treatment; Anova p≤0.005, matched comparisons
Experimental: To assess global effects of TLR2/6 agonists and IFNγ stimulation on melanoma, gene expression profiling of melanoma cell lines was performed.

[8] = test system: cells from fresh surgically isolated melanoma metastases; test: CXCL10 ELISA of supernatants of stimulated cells from fresh melanoma metastases; format: cell-based, human; settings: patient 1 tumor (FIG. 6E)
Experimental: Melanoma cell lines or cells from patient samples were stimulated with TLR agonists as described, but without GolgiStop. Media containing the cell-secreted chemokines were collected and centrifuged to remove cell debris. CXCL10 was measured using the BD OptEIA human IP-10 ELISA Set with BD OptEIA buffers (BD Biosciences).

[9] = test system: cells from freshly resected human melanoma metastases; test: CXCL10 production by cells of freshly resected melanoma metastases, flow cytometry; format: cell-based; settings: patients 1-3 (FIG. 6A)
Description: FIGS. 6A-6E. Patient melanomas generate CXCL10 in response to TLR2/6 agonist and IFNγ. […] Cell subsets were defined as: melanoma (CD45^negS100^+), endothelial (S100^negCD45^negCD105^+), B-cell (CD20^+), DC (CD11c^+HLADR^+), macrophage (CD14^+), NK-cell (CD56^+) and T-cell (CD3^+). FIG. 6A. The percent of melanoma cells that are CXCL10^+ from patient 1 (top), patient 2 (middle) and patient 3 (bottom) tumors after stimulation with the indicated conditions (left panel). MFI for CXCL10 expression of melanoma cells from patient 1 melanoma (top) and patient 2 melanoma (middle) patient 3 melanoma (bottom) (right panel). FIG. 6B-FIG. 6D. […] Graph of CXCL10 measured by ELISA assay, cells are from patient 1 tumor.
Having observed production of CCL3 and CXCL10 by cultured human melanoma cell lines in vitro, we asked whether the same would be observed with melanoma cells isolated from fresh surgically-excised human metastases. TLR2 and TLR6 are expressed on some immune cell subsets (31; 32), thus we also assessed whether TLR2/6 agonists and IFNγ may impact CXCL10 production from immune cell subsets in patient tumor specimens. […] The percentage of live cells from tumor assessed by viability marker were approximately 60%, 50%, 70%, and 40% for patients 1-4 respectively (data not shown).

Pam3CysSerLys4 [Pam3CSK4]
cell lines with induced CXCL10 production [1]: 2/4
CXCL10 production [2]: some CXCL10 production can be induced

CC(C)Cn1cnc2c(N)nc3ccccc3c21 [imiquimod]
effect on CXCL10 induction [3]: little effect
chemokine production [4]: little chemokine production

macrophage-activating lipopeptide 2 [MALP-2]
optimal concentration for CXCL10 production [3]: 100 ng/mL
chemokine production [4]: little chemokine production

interferon gamma [IFNγ, recombinant human IFNγ (PeproTech), used at 1000 IU/mL]
expression of TLR2 or TLR6 [5]: neither was impacted
percent of cells producing CXCL10 [6]: 7%
fold change of gene induction, CXCL9 [7]: 20.7 fold change
fold change of gene induction, CXCL10 [7]: 36.5 fold change
fold change of gene induction, GBP1 [7]: 50.6 fold change
fold change of gene induction, GBP4 [7]: 84.9 fold change
fold change of gene induction, IFI30 [7]: 14.4 fold change
fold change of gene induction, IFITM1 [7]: 14.4 fold change
fold change of gene induction, IRF1 [7]: 30.2 fold change
fold change of gene induction, OAS2 [7]: 24.1 fold change
fold change of gene induction, TNFSF10 [7]: 25.7 fold change
fold change of gene induction, XAF1 [7]: 22.8 fold change
CXCL10 in supernatants [8]: ~400 pg/mL
CXCL10 production by melanoma cells (S100+CD45neg), percentage of CXCL10+ cells and MFI [9]: produced CXCL10

lipopolysaccharide [LPS]
cell lines with induced CXCL10 production [1]: 2/4
concentration inducing CXCL10 at levels comparable to MALP-2 or FSL-1 and IFNγ ([3]; +IFNγ (FIG. 3D)): 100 µg/mL
concentration inducing comparable levels of CXCL10 ([3]; in combination with IFNγ, compared with TLR2/6 agonists): ≥ 100 µg
chemokine production [4]: little chemokine production

fibroblast-stimulating lipopeptide-1 [FSL-1]
optimal concentration for CXCL10 production [3]: 5000 ng/mL
chemokine production [4]: little chemokine production

poly-ICLC
effect on CXCL10 induction [3]: little effect
chemokine production [4]: little chemokine production
